{
  "source": "patent US20220168403A1",
  "about": "“SUBCUTANEOUS TELOMERASE INHIBITOR COMPOSITIONS AND METHODS FOR USING SAME” (Geron Corporation, priority 2020, published 2022)",
  "key": {"[1]": {"tested_on": "patients with myelofibrosis", "conditions": "administered intravenously, correlated with reduction of mutation burden and cytogenetic abnormalities; cited from earlier work"}, "[2]": {"tested_on": "patients with lower risk myelodysplastic syndrome", "conditions": "administered intravenously; cited from earlier work"}, "[3]": {"tested_on": "template region of the RNA component of telomerase", "conditions": "background statement; cited from earlier work"}, "[4]": {"tested_on": "cancer cell lines and human tumors", "conditions": "U.S. Pat. No. 7,494,982, cited from earlier work"}, "[5]": {"test": "Bioavailability of imetelstat sodium in rats via subcutaneous and intravenous routes (plasma LC/MS/MS, noncompartmental PK)", "format": "in vivo, Sprague-Dawley rats", "description": "4 male, Sprague-Dawley rats (approximately 250 g-260 g) were dosed intravenously (IV volume 37.5 μL; 30 mg/kg) and 4 male, Sprague-Dawley rats (approximately 250 g-260 g) were dosed subcutaneously (SC volume 113 μL; 90 mg/kg) with imetelstat sodium. Imetelstat sodium is a 5′ palmitoylated 13-mer thiophosphoramidate oligonucleotide composed of the sequence 5′-TAGGGTTAGACAA-3′. Imetelstat sodium was dissolved in water immediately before dosing.\nBlood was collected from each of the rats at time points of 0.083 hours (˜5 minutes), 0.25 hours (15 minutes), 1 hour, 2 hours, 4 hours, 8 hours and at 24 hours. A volume of […] of whole blood was collected, yielding about 700 μL to 1000 μL of plasma. Blood was collected through a secondary catheter in IV dosed rats (different from the one used for IV dosing).\nBlood samples were collected in EDTA tubes and centrifuged immediately after collection. Collected plasma samples were transferred to a separate vial. Plasma concentration of imetelstat sodium was analyzed by LC/MS/MS.\nThe plasma concentrations of imetelstat sodium that were analyzed over a 24 hour period are depicted in FIG. 1. The plasma concentrations of imetelstat sodium were analyzed by a noncompartmental PK analysis. The subcutaneous (s.c.) bioavailability was calculated based on the following equation: F=(AUC(s.c.)/Dose(s.c.))/(AUC(i.v.)/Dose(i.v.))×100%."}, "[6]": {"test": "Pre-study compatibility of imetelstat co-formulated with rHuPH20 (appearance, UV assay, water content, pH, RP-HPLC/UV)", "format": "physicochemical", "description": "The following formulations were prepared"}},
  "data": [
    {"smiles": "CCCCCCCCCCCCCCCC(=O)NCC(O)COP(=O)([S-])OC[C@H]1O[C@@H](n2cc(C)c(=O)[nH]c2=O)CC1NP(=O)([S-])OC[C@H]1O[C@@H](n2cnc3c(N)ncnc32)CC1NP(=O)([S-])OC[C@H]1O[C@@H](n2cnc3c(=O)[nH]c(N)nc32)CC1NP(=O)([S-])OC[C@H]1O[C@@H](n2cnc3c(=O)[nH]c(N)nc32)CC1NP(=O)([S-])OC[C@H]1O[C@@H](n2cnc3c(=O)[nH]c(N)nc32)CC1NP(=O)([S-])OC[C@H]1O[C@@H](n2cc(C)c(=O)[nH]c2=O)CC1NP(=O)([S-])OC[C@H]1O[C@@H](n2cc(C)c(=O)[nH]c2=O)CC1NP(=O)([S-])OC[C@H]1O[C@@H](n2cnc3c(N)ncnc32)CC1NP(=O)([S-])OC[C@H]1O[C@@H](n2cnc3c(=O)[nH]c(N)nc32)CC1NP(=O)([S-])OC[C@H]1O[C@@H](n2cnc3c(N)ncnc32)CC1NP(=O)([S-])OC[C@H]1O[C@@H](n2ccc(N)nc2=O)CC1NP(=O)([S-])OC[C@H]1O[C@@H](n2cnc3c(N)ncnc32)CC1NP(=O)([S-])OC[C@H]1O[C@@H](n2cnc3c(N)ncnc32)CC1N.[Na+].[Na+].[Na+].[Na+].[Na+].[Na+].[Na+].[Na+].[Na+].[Na+].[Na+].[Na+].[Na+]", "note": "(stereo partly drawn) [imetelstat sodium, 5′ palmitoylated 13-mer thiophosphoramidate oligonucleotide composed of the sequence 5′-TAGGGTTAGACAA-3′]", "values": [
      {"measurement": "overall survival and bone marrow fibrosis", "setting": "[1]", "value": "able to achieve improvement in overall survival and bone marrow fibrosis"},
      {"measurement": "transfusion independence", "setting": "[2]", "value": "able to achieve durable transfusion independence in certain patients"},
      {"measurement": "binding to the template region of the RNA component of telomerase", "setting": "[3]", "value": "high affinity"},
      {"measurement": "telomerase activity inhibition", "setting": "[4]; background", "value": "inhibits telomerase activity"},
      {"measurement": "effect on cell proliferation", "setting": "[4]; multitude of different cancer cell lines and human tumors", "value": "effective against cell proliferation"},
      {"measurement": "calculated subcutaneous bioavailability (F)", "setting": "[5]; SC 90 mg/kg vs IV 30 mg/kg, F=(AUC(s.c.)/Dose(s.c.))/(AUC(i.v.)/Dose(i.v.))×100%, 24 hour period", "value": "about 95.8%"},
      {"measurement": "calculated subcutaneous bioavailability (F)", "setting": "[5]; repeated experiment", "value": "about 81.5%"},
      {"measurement": "Individual Impurities by RP-HPLC/UV: Unlipidated species", "setting": "[6]; RRT 0.42", "value": 0.26, "unit": "% Area"},
      {"measurement": "Individual Impurities by RP-HPLC/UV: Pre-Peak", "setting": "[6]; RRT 0.98", "value": 0.35, "unit": "% Area"},
      {"measurement": "Individual Impurities by RP-HPLC/UV: Post-Peak 1", "setting": "[6]; RRT 1.04", "value": 5.04, "unit": "% Area"},
      {"measurement": "Individual Impurities by RP-HPLC/UV: Post-Peak 2", "setting": "[6]; RRT 1.08", "value": 0.53, "unit": "% Area"},
      {"measurement": "Individual Impurities by RP-HPLC/UV: Post-Peak 3", "setting": "[6]; RRT 1.12 (Imetelstat Only), 1.09 (co-formulations)", "value": "<0.2", "unit": "% Area"},
      {"measurement": "Assay by UV", "setting": "[6]; pre-study", "value": 1033, "unit": "µg/mg"},
      {"measurement": "Water Content", "setting": "[6]; pre-study", "value": 4.2, "unit": "%"},
      {"measurement": "pH (1 mL, Plastic)", "setting": "[6]; pre-study", "value": 8.0},
      {"measurement": "Purity by RP-HPLC/UV", "setting": "[6]; pre-study compatibility", "value": 93.1, "unit": "%"},
      {"measurement": "Total Impurities by RP-HPLC/UV", "setting": "[6]; pre-study compatibility", "value": 6.9, "unit": "%"},
      {"measurement": "Appearance of Reconstituted Solution", "setting": "[6]; pre-study, Imetelstat Only = most current stability data of the drug substance lot", "value": "Clear solution,"}
    ]}
  ]
}
